The subject of the experiment is A. thaliana seedlings. The experiment can be described thus: Growth and development response of A. thaliana seedlings grown in liquid medium with anticancer drug or hot-water extract. The format is in vivo, Arabidopsis thaliana. Particulars: for generation of lateral roots: anticancer drug treatment; for hypocotyl length growth depending on concentration: statistical computing, FIG. 11. Here is the method:
The Columbia seeds collected from wild-type A. thaliana plants were sterilized and then kept in a dark place at 4° C. for 3 days to enhance germination rate thereof. The wild-type A. thaliana seeds sown on an MS solid medium containing agar were germinated at 22° C. and on the long day condition of 16 hours the day/8 hours night and allowed to grow the A. thaliana seedlings for three days.
The undiluted extract of traditional herbal medicinal material described above was diluted at the ratios of 0.5×, 0.25× and 0.05×, and the MS liquid medium of 1 ml was mixed well with distilled water to make a total volume of 2 ml. in a 12-well cell culture plate. About ten A. thaliana seedlings were planted in each well and the plates were put on a shaker to cultivate them at 100 rpm for three days. Growth and development of the arabidopsis seedlings was analyzed after three days. Each test was carried out in 3 replicates.
The analysis of A. thaliana seedling response to anticancer drugs was made in the same manner, except that the anticancer drugs were applied instead of the traditional herbal medicinal material extract.
Root length, the number of lateral roots and hypocotyl length of the A. thaliana seedlings were measured in order to find the difference in developmental biology shown by the response of A. thaliana seedlings to the anticancer drugs and the extract. The ImageJ software (see rsb.info.nih.gov/ij/) was used to measure the respective lengths in images of the photograph file.
Crude extracts were made with the traditional herbal medicinal materials of each prescription and medicinal material components thereof, respectively, and the ⅕-fold-diluted solution was used as a first effective concentration. The solution was produced by adding 0.4 ml of the crude extract to 1 ml of the 0.5× MS medium and 0.6 ml of water.
For making more quantitative analysis of the reaction to respective traditional herbal medicinal materials, the number of lateral roots were measured for 12 or more A. thaliana seeedlings in each treatment group. […]

The mark [1] stands for this setting: vs DMSO-treated control seedlings, FIG. 8.

On to `CC(=O)O[C@H]1C(=O)[C@@]2(C)[C@H]([C@H](OC(=O)c3ccccc3)[C@]3(O)C[C@H](OC(=O)[C@H](O)[C@@H](NC(=O)c4ccccc4)c4ccccc4)C(C)=C1C3(C)C)[C@]1(OC(C)=O)CO[C@@H]1C[C@@H]2O` [taxol, Paclitaxel], for which the “hypocotyl length growth depending on concentration” value is recorded as “inhibited in a significant level”. In addition, the root morphology result (2 uM, three days after treatment, vs water-treated control roots, FIG. 9) is “dense root hairs and opaque epidermal cells”. The “generation of lateral roots” value (FIG. 8) is “not significantly affected”. Where the note is “treated or not with taxol, FIG. 8”, the “number of lateral roots generated” value is on record as “Approximately five”. Besides, under setting [1], the hypocotyl growth entry is listed as “inhibited in proportion to the concentrations” and the root growth result is “inhibited in proportion to the concentrations”. Moreover, the “trichome morphology (branches)” value (vs control group, FIG. 10) is “changed from the three-branch type to the one-branch type”.

As for `CC[C@@]1(O)C(=O)OCc2c1cc1n(c2=O)Cc2cc3ccccc3nc2-1` [camptothecin], the “hypocotyl length growth depending on concentration” value is recorded as “inhibited in a significant level”. In addition, the “generation of lateral roots at low concentration” value (0.05 uM) is “inhibited generation of lateral roots”. Also, where the note is “FIG. 8”, the “generation of lateral roots” value is given as “markedly inhibited”.

(Values after US20170218445A1, “DRUG DISCOVERY METHODS USING PLANT DEVELOPMENTAL BIOLOGY” (SEOUL NATIONAL UNIVERSITY R&DB FOUNDATION, priority 2014, published 2017).)
